These are literature values, as cited in patent US20060120979A1, “Skin care composition comprising hydroquinone and a substantially anhydrous base” (priority 2004, published 2006).

SMILES strings stand for the structures.

On to `Oc1ccc(O)cc1` [Hydroquinone], for which the solubility in alcohols result (alcohols) is “freely soluble”. In addition, the solubility in water entry (water) is reported as “less soluble”.
